Assay results as given in US12514938B2, “Fibroblast activation protein targeting peptides” (PERSPECTIVE THERAPEUTICS, INC., priority 2023, dated 2026).
*1 amine or outer side, *2 acyl side, *3 side chain or, on linkers, in order; H or OH if unused. Where a SMILES comes first, the peptide text is derived from it. Bridges are numbered along the chain shown (N, C = ends). oXylylene = c1ccc(C[*:2])c(C[*:1])c1

Target: T1, Human Fibroblast Activation Protein (FAP) (Homo sapiens, UniProt Q12884)
T1 sequence (Q12884 1-760): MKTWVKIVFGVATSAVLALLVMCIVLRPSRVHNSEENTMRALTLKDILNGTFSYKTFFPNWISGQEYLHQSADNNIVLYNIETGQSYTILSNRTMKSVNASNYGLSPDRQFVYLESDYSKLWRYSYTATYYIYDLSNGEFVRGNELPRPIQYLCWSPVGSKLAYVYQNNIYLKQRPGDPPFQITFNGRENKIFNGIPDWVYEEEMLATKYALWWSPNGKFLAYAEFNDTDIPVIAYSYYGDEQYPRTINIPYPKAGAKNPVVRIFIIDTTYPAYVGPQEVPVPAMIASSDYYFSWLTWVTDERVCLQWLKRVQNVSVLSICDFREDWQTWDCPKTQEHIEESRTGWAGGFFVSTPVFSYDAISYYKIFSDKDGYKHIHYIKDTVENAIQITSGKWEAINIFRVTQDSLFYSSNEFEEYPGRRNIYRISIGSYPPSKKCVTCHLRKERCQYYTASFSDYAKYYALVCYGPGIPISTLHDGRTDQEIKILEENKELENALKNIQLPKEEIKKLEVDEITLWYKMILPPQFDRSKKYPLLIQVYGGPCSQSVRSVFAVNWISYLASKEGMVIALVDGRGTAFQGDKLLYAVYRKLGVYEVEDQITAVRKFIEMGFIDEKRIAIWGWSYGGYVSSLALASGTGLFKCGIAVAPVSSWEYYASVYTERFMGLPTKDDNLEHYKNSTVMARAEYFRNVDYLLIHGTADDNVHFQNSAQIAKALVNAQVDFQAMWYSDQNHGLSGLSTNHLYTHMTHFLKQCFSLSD
Test: Enzyme inhibition assay against human FAP (substrate Z-GP-AMC), Example 1
Type: biochemical
Settings: human FAP 5 ng/well, 50 μM Z-GP-AMC; Ki from IC50 by Cheng-Prusoff
Description: Binding Affinity Against Human Fibroblast Activation Protein (FAP)
An enzyme inhibition assay was performed to determine IC50 values and then the Cheng-Prusoff equation used to calculate the Ki given a known Km of the substrate Z-GP-AMC for FAP. To perform the assay, FAP (5 ng/well) and the test peptide at varying concentrations (i.e. 10^−6 to 10^−12) were incubated in a black 96-well plate for 10 minutes at RT on a shaker plate. Then, the substrate Z-GP-AMC was added to give a final concentration of 50 μM. The total reaction volume per well was 100 μL The reaction was allowed to incubate at RT on a shaker plate for 1 hour protected from light, and then fluorescence read with a BioTek Synergy LX plate reader at an ex/em (360/40 and 460/40). Experiments were performed in at least duplicate, and controls of buffer only, buffer and FAP enzyme, and buffer with substrate and FAP enzyme only were included for comparison. The buffer used for the assay was 50 mM Tris-HCl, 1M NaCl, and 1 mg/mL BSA, pH=7.5. Data was plotted in GraphPad Prism and non-linear regression used to calculate IC50 values. The compounds tested and Ki values of each were as follows: […]

Ki [nM]	SMILES
5.01	CC[C@H](C)[C@@H]1NC(=O)[C@H](CCC(=O)O)NC(=O)[C@H](Cc2ccccc2)NC(=O)[C@@H]2CCCN2C(=O)[C@H]([C@@H](C)O)NC(=O)[C@@H](NC(=O)[C@H](CO)NC(C)=O)CSCc2ccccc2CSC[C@@H](C(N)=O)NC(=O)[C@H](Cc2c[nH]c3ccccc23)NC(=O)[C@H](Cc2c[nH]c3ccccc23)NC1=O [VMT-FAP-1-94, Ac-S[C(oXdB)TPFEIWWC]-NH2] (Ac-SCTPFEIWWC-NH2; linker 2-10 via oXylylene)
11.2	CC(=O)N[C@@H](CO)C(=O)N[C@H]1CSCc2ccccc2CSC[C@@H](C(N)=O)NC(=O)[C@H](Cc2c[nH]c3ccccc23)NC(=O)[C@H](Cc2c[nH]c3ccccc23)NC(=O)[C@H](Cc2c[nH]cn2)NC(=O)[C@H](CCC(=O)O)NC(=O)[C@H](Cc2ccccc2)NC(=O)[C@@H]2CCCN2C(=O)[C@H]([C@@H](C)O)NC1=O [VMT-FAP-1-101, Ac-S[C(oXdB)TPFEHWWC]-NH2] (Ac-SCTPFEHWWC-NH2; linker 2-10 via oXylylene)
1.83	CC(=O)N[C@@H](CO)C(=O)N[C@H]1CSCc2ccccc2CSC[C@@H](C(N)=O)NC(=O)[C@H](Cc2c[nH]c3ccccc23)NC(=O)[C@H](Cc2c[nH]c3ccccc23)NC(=O)[C@H](CC(=O)O)NC(=O)[C@H](CCC(=O)O)NC(=O)[C@H](Cc2ccccc2)NC(=O)[C@@H]2CCCN2C(=O)[C@H]([C@@H](C)O)NC1=O [VMT-FAP-1-104, Ac-S[C(oXdB)TPFEDWWC]-NH2] (Ac-SCTPFEDWWC-NH2; linker 2-10 via oXylylene)
0.38	CC(=O)N[C@@H](CO)C(=O)N[C@H]1CSCc2ccccc2CSC[C@@H](C(N)=O)NC(=O)[C@H](Cc2c[nH]c3ccccc23)NC(=O)[C@H](Cc2c[nH]c3ccccc23)NC(=O)[C@H](CCC(=O)O)NC(=O)[C@H](CCC(=O)O)NC(=O)[C@H](Cc2ccccc2)NC(=O)[C@@H]2CCCN2C(=O)[C@H]([C@@H](C)O)NC1=O [VMT-FAP-1-105, Ac-S[C(oXdB)TPFEEWWC]-NH2] (Ac-SCTPFEEWWC-NH2; linker 2-10 via oXylylene)
0.55	CC(=O)N[C@@H](CO)C(=O)N[C@H]1CSCc2ccccc2CSC[C@@H](C(N)=O)NC(=O)[C@H](Cc2c[nH]c3ccccc23)NC(=O)[C@H](Cc2c[nH]c3ccccc23)NC(=O)[C@H](CCC(N)=O)NC(=O)[C@H](CCC(=O)O)NC(=O)[C@H](Cc2ccccc2)NC(=O)[C@@H]2CCCN2C(=O)[C@H]([C@@H](C)O)NC1=O [VMT-FAP-2-12, Ac-S[C(oXdB)TPFEQWWC]-NH2] (Ac-SCTPFEQWWC-NH2; linker 2-10 via oXylylene)
0.45	C[C@H](N)C(=O)N[C@H]1CSCc2ccccc2CSC[C@@H](C(N)=O)NC(=O)[C@H](Cc2c[nH]c3ccccc23)NC(=O)[C@H](Cc2c[nH]c3ccccc23)NC(=O)[C@H](CCC(N)=O)NC(=O)[C@H](CCC(=O)O)NC(=O)[C@H](Cc2ccccc2)NC(=O)[C@@H]2CCCN2C(=O)[C@H]([C@@H](C)O)NC1=O [VMT-FAP-2-19, A[C(oXdB)TPFEQWWC]-NH2] (H-ACTPFEQWWC-NH2; linker 2-10 via oXylylene; N-terminus assumed)
0.29	C[C@@H]1NC(=O)[C@H](CCC(=O)O)NC(=O)[C@H](Cc2ccccc2)NC(=O)[C@@H]2CCCN2C(=O)[C@H]([C@@H](C)O)NC(=O)[C@@H](NC(=O)[C@@H](N)CO)CSCc2ccccc2CSC[C@@H](C(N)=O)NC(=O)[C@H](Cc2c[nH]c3ccccc23)NC(=O)[C@H](Cc2c[nH]c3ccccc23)NC1=O [VMT-FAP-2-23, S[C(oXdB)TPFEAWWC]-NH2] (H-SCTPFEAWWC-NH2; linker 2-10 via oXylylene; N-terminus assumed)
2.29	CC(=O)N[C@@H](CO)C(=O)N[C@H]1CSCc2ccccc2CSC[C@@H](C(N)=O)NC(=O)[C@H](Cc2ccc(O)cc2)NC(=O)[C@H](Cc2c[nH]c3ccccc23)NC(=O)[C@H](CCC(N)=O)NC(=O)[C@H](CCC(=O)O)NC(=O)[C@H](Cc2ccccc2)NC(=O)[C@@H]2CCCN2C(=O)[C@H]([C@@H](C)O)NC1=O [VMT-FAP-2-28, Ac-S[C(oXdB)TPFEQWYC]-NH2] (Ac-SCTPFEQWYC-NH2; linker 2-10 via oXylylene)

Second part, the compound before the results:

SMILES	Ki [nM]
CC(=O)NCC(=O)N[C@H]1CSCc2ccccc2CSC[C@@H](C(N)=O)NC(=O)[C@H](Cc2c[nH]c3ccccc23)NC(=O)[C@H](Cc2c[nH]c3ccccc23)NC(=O)[C@H](CCC(N)=O)NC(=O)[C@H](CCC(=O)O)NC(=O)[C@H](Cc2ccccc2)NC(=O)[C@@H]2CCCN2C(=O)[C@H]([C@@H](C)O)NC1=O [VMT-FAP-1-1, Ac-G[C(oXdB)TPFEQWWC]-NH2] (Ac-GCTPFEQWWC-NH2; linker 2-10 via oXylylene)	10.4
CC(=O)N[C@@H](CCCNC(=N)N)C(=O)N[C@H]1CSCc2ccccc2CSC[C@@H](C(N)=O)NC(=O)[C@H](Cc2c[nH]c3ccccc23)NC(=O)[C@H](Cc2c[nH]c3ccccc23)NC(=O)[C@H](CCC(N)=O)NC(=O)[C@H](CCC(=O)O)NC(=O)[C@H](Cc2ccccc2)NC(=O)[C@@H]2CCCN2C(=O)[C@H]([C@@H](C)O)NC1=O [VMT-FAP-1-13, Ac-R[C(oXdB)TPFEQWWC]-NH2] (Ac-RCTPFEQWWC-NH2; linker 2-10 via oXylylene)	2.82
CC(=O)N[C@@H](CC(=O)O)C(=O)N[C@H]1CSCc2ccccc2CSC[C@@H](C(N)=O)NC(=O)[C@H](Cc2c[nH]c3ccccc23)NC(=O)[C@H](Cc2c[nH]c3ccccc23)NC(=O)[C@H](CCC(N)=O)NC(=O)[C@H](CCC(=O)O)NC(=O)[C@H](Cc2ccccc2)NC(=O)[C@@H]2CCCN2C(=O)[C@H]([C@@H](C)O)NC1=O [VMT-FAP-1-14, Ac-D[C(oXdB)TPFEQWWC]-NH2] (Ac-DCTPFEQWWC-NH2; linker 2-10 via oXylylene)	0.36
CC(=O)N[C@@H](CC(N)=O)C(=O)N[C@H]1CSCc2ccccc2CSC[C@@H](C(N)=O)NC(=O)[C@H](Cc2c[nH]c3ccccc23)NC(=O)[C@H](Cc2c[nH]c3ccccc23)NC(=O)[C@H](CCC(N)=O)NC(=O)[C@H](CCC(=O)O)NC(=O)[C@H](Cc2ccccc2)NC(=O)[C@@H]2CCCN2C(=O)[C@H]([C@@H](C)O)NC1=O [VMT-FAP-1-17, Ac-N[C(oXdB)TPFEQWWC]-NH2] (Ac-NCTPFEQWWC-NH2; linker 2-10 via oXylylene)	10.7
CC(=O)N[C@@H](CC(N)=O)C(=O)N[C@H]1CSCc2ccccc2CSC[C@@H](C(N)=O)NC(=O)[C@H](Cc2c[nH]c3ccccc23)NC(=O)[C@H](Cc2c[nH]c3ccccc23)NC(=O)[C@H](CCC(N)=O)NC(=O)[C@H](CCC(=O)O)NC(=O)[C@H](Cc2c[nH]c3ccccc23)NC(=O)[C@@H]2CCCN2C(=O)[C@H]([C@@H](C)O)NC1=O [VMT-FAP-1-62, Ac-N[C(oXdB)TPWEQWWC]-NH2] (Ac-NCTPWEQWWC-NH2; linker 2-10 via oXylylene)	0.46
CC(=O)N[C@@H](CC(N)=O)C(=O)N[C@H]1CSCc2ccccc2CSC[C@@H](C(N)=O)NC(=O)[C@H](Cc2c[nH]c3ccccc23)NC(=O)[C@H](Cc2c[nH]c3ccccc23)NC(=O)[C@H](CCC(N)=O)NC(=O)[C@H](CCC(=O)O)NC(=O)[C@H](Cc2c[nH]cn2)NC(=O)[C@@H]2CCCN2C(=O)[C@H]([C@@H](C)O)NC1=O [VMT-FAP-1-64, Ac-N[C(oXdB)TPHEQWWC]-NH2] (Ac-NCTPHEQWWC-NH2; linker 2-10 via oXylylene)	10.7
